# Laboratory results: patent US4713378A, “Penem derivatives” (Farmitalia Carlo Erba S.p.A., priority 1984, dated 1987)
# Read-outs that look alike come from different tables or passages of the source.
# What was measured:
# Format in all cases: cell-based
# [1] = system: Proteus morganii ATCC 25830; test: antibacterial in vitro activity (MIC), Proteus morganii ATCC 25830; conditions: Morganella morganii, ATCC25830; Proteus morganii ATCC 25830, in vitro
# From the text: (§1) Comparison between the antibacterial in vitro activity
# (§2) (MIC, μg/ml) of compound "5" and two reference drugs: […]
# [2] = system: Enterobacter cloacae P 99 (β-lact.+); test: antibacterial in vitro activity (MIC), Enterobacter cloacae P 99 (β-lact.+)
# From the text: as §1, §2
# Escherichia coli 026:B6 = test: antibacterial in vitro activity (MIC), Escherichia coli 026:B6; conditions: Escherichia coli 026:B6, in vitro
# From the text: as §1, §2
# [3] = system: Pseudomonas aeruginosa ATCC 19660; test: antibacterial in vitro activity (MIC), Pseudomonas aeruginosa ATCC 19660; conditions: ATCC19660; Pseudomonas aeruginosa ATCC 19660, in vitro
# From the text: as §1, §2
# [4] = system: Shigella flexneri ATCC 11836; test: antibacterial in vitro activity (MIC), Shigella flexneri ATCC 11836; conditions: ATCC11836; Shigella flexneri ATCC 11836, in vitro
# From the text: as §1, §2
# [5] = system: Staphylococcus aureus 209 P; test: antibacterial in vitro activity (MIC), Staphylococcus aureus 209 P
# From the text: as §1, §2
# Escherichia coli B = test: antibacterial in vitro activity (MIC), Escherichia coli B
# From the text: as §1, §2
# [6] = system: Salmonella typhimurium ATCC 14028; test: antibacterial in vitro activity (MIC), Salmonella typhimurium ATCC 14028; conditions: Salmonella enterica; Salmonella typhimurium ATCC 14028, in vitro
# From the text: as §1, §2
# [7] = system: Escherichia coli B Cef. R (β-lact.+); test: antibacterial in vitro activity (MIC), Escherichia coli B Cef. R (β-lact.+)
# From the text: as §1, §2
# [8] = system: Staphylococcus aureus Smith; test: antibacterial in vitro activity (MIC), Staphylococcus aureus Smith
# From the text: as §1, §2
# [9] = system: Streptococcus pyogenes ATCC 12384; test: antibacterial in vitro activity (MIC), Streptococcus pyogenes ATCC 12384; conditions: ATCC12384; Streptococcus pyogenes ATCC 12384, in vitro
# From the text: as §1, §2
# [10] = system: Klebsiella aerogenes 1082E (β-lact.+); test: antibacterial in vitro activity (MIC), Klebsiella aerogenes 1082E (β-lact.+)
# From the text: as §1, §2
# [11] = system: Escherichia coli 026:B6 Cef R; test: antibacterial in vitro activity (MIC), Escherichia coli 026:B6 Cef R
# From the text: as §1, §2
# [12] = system: Enterobacter cloacae 1321 E; test: antibacterial in vitro activity (MIC), Enterobacter cloacae 1321 E
# From the text: as §1, §2
# [13] = system: Citrobacter freundii ATCC 8090; test: antibacterial in vitro activity (MIC), Citrobacter freundii ATCC 8090; conditions: ATCC8090; Citrobacter freundii ATCC 8090, in vitro
# From the text: as §1, §2
# [14] = system: Proteus mirabilis FI 7474; test: antibacterial in vitro activity (MIC), Proteus mirabilis FI 7474; conditions: FI7474; Proteus mirabilis FI 7474, in vitro
# From the text: as §1, §2
# [15] = system: Serratia marcescens ATCC 2902; test: antibacterial in vitro activity (MIC), Serratia marcescens ATCC 2902; conditions: ATCC2902; Serratia marcescens ATCC 2902, in vitro
# From the text: as §1, §2
# [16] = Enterobacter cloacae P 99 (β-lact.+), in vitro, read-out: MIC
# [17] = Staphylococcus aureus 209 P, in vitro, read-out: MIC
smiles,measurement,setting,value
CO/N=C(\C(=O)N[C@@H]1C(=O)N2C(C(=O)O)=C(COC(C)=O)CS[C@H]12)c1csc(N)n1 [Cefotaxime],MIC,[1],0.011 µg/mL
same,MIC,[2]; [16],> 100 µg/mL
same,MIC,Escherichia coli 026:B6,0.78 µg/mL
same,MIC,[3],12 µg/mL
same,MIC,[4],0.023 µg/mL
same,MIC,"[5]; Staphylococcus aureus, 209P",1.56 µg/mL
same,MIC,Escherichia coli B,0.011 µg/mL
same,MIC,[6],0.045 µg/mL
same,MIC,[7],0.19 µg/mL
same,MIC,[8],0.78 µg/mL
same,MIC,[9],0.78 µg/mL
same,MIC,[10],3.12 µg/mL
same,MIC,[11],1.56 µg/mL
"C[C@@H](O)[C@H]1C(=O)N2C(C(=O)[O-])=C(C[N+]3(C)CCCC3)S[C@H]12 [Compound 5, (5R,6S)-6-[(1R)-hydroxyethyl]-2-[1-(1-methylpyrrolidinio)]-methylpenem-3-carboxylate]",MIC,[12],0.045 µg/mL
same,MIC,[1],0.38 µg/mL
same,MIC,[13],0.09 µg/mL
same,MIC,[2]; [16],0.045 µg/mL
same,MIC,Escherichia coli 026:B6,0.005 µg/mL
same,MIC,[3],25 µg/mL
same,MIC,[4],0.045 µg/mL
same,MIC,[14],0.19 µg/mL
same,MIC,[15],0.78 µg/mL
same,MIC,[5]; [17],< 0.005 µg/mL
same,MIC,Escherichia coli B,0.045 µg/mL
same,MIC,[6],0.045 µg/mL
same,MIC,[7],0.045 µg/mL
same,MIC,[8],< 0.005 µg/mL
same,MIC,[9],< 0.005 µg/mL
same,MIC,[10],0.045 µg/mL
CC(=O)OCC1=C(C(=O)O)N2C(=O)[C@H]([C@@H](C)O)[C@H]2S1 [FCE 21420],MIC,[1],0.78 µg/mL
same,MIC,[13],0.78 µg/mL
same,MIC,[2]; Enterobacter cloacae,3.12 µg/mL
same,MIC,[3],> 50 µg/mL
same,MIC,[4],0.39 µg/mL
same,MIC,[15],3.1 µg/mL
same,MIC,[5]; [17],0.045 µg/mL
same,MIC,[6],0.39 µg/mL
same,MIC,[7],0.39 µg/mL
same,MIC,[8],0.023 µg/mL
same,MIC,[9],0.045 µg/mL
same,MIC,[10],0.78 µg/mL
same,MIC,[11],3.12 µg/mL
